Measured values from US20040117125A1, “Drug discovery method and apparatus” (priority 1999, published 2004).

Assays:
MPTP-treated monkeys = conditions: combined with L-Dopa or selective dopamine agonists (D1 or D2); cited from earlier work
GABA-A = test: Fluridone/bicuculline in vivo GABA-A agonism/antagonism assay; conditions: mice, bicuculline 5 mg/kg alone

SMILES	dyskinesia (MPTP-treated monkeys)	seizures (GABA-A)	Death rate (GABA-A; within ten to twenty second after injection)
CCn1c(=O)c2c(nc(/C=C/c3ccc(OC)c(OC)c3)n2C)n(CC)c1=O [KW-6002]	does not induce dyskinesia	–	–
CN1CCc2cc3c(cc2[C@H]1[C@@H]1OC(=O)c2c1ccc1c2OCO1)OCO3 [bicuculline]	–	induced immediate seizures	100%
